Measurements taken from PubChem BioAssay (NCI).
Values joined by “and” are separate entries in the source; they are usually repeats but may differ in a detail not shown here. Equal values may be shown once.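 Step 1: Grow cells in 96-well plates. Step 2: Expose to compound for 48 hours at 5 concentrations. Step 3: Interpolate endpoints linearly; if unreached, use highest concentration. GI50 is the concentration that inhibits growth by half. TGI: concentration producing complete growth inhibition.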

How the values were obtained:
Assay in all cases: DTP human tumour cell line panel, 48 h
[1] = test system: SNB-75 CNS
[2] = test system: SF-268 CNS
[3] = test system: HOP-92 NSCLC
[4] = test system: SF-295 CNS
[5] = test system: SR leukemia
[6] = test system: HT29 colon
[7] = test system: SN12C renal
[8] = test system: K-562 leukemia
[9] = test system: UACC-62 melanoma
[10] = test system: NCI/ADR-RES ovarian
[11] = test system: CCRF-CEM leukemia
[12] = test system: NCI-H460 lung
[13] = test system: HCC-2998 colon
[14] = test system: 786-0 renal
[15] = test system: SNB-19 CNS
[16] = test system: PC-3 prostate
[17] = test system: SW-620 colon
[18] = test system: OVCAR-3 ovarian
[19] = test system: ACHN renal
[20] = test system: HCT-116 colon
[21] = test system: UO-31 renal
[22] = test system: IGROV1 ovarian
[23] = test system: OVCAR-4 ovarian
[24] = test system: KM12 colon
[25] = test system: RXF 393 renal
[26] = test system: OVCAR-5 ovarian
[27] = test system: MALME-3M melanoma
[28] = test system: HS 578T breast
[29] = test system: TK-10 renal
[30] = test system: EKVX NSCLC
[31] = test system: NCI-H522 lung
[32] = test system: NCI-H226 lung
[33] = test system: A498 renal
[34] = test system: SF-539 CNS
[35] = test system: MCF7 breast
[36] = test system: MOLT-4 leukemia
[37] = test system: UACC-257 melanoma
[38] = test system: LOX IMVI melanoma
[39] = test system: CAKI-1 renal
[40] = test system: COLO 205 colon
[41] = test system: M14 melanoma
[42] = test system: HL-60(TB) leukemia
[43] = test system: NCI-H23 lung
[44] = test system: MDA-N
[45] = test system: SK-MEL-28 melanoma
[46] = test system: HCT-15 colon
[47] = test system: MDA-MB-435
[48] = test system: HOP-62 NSCLC
[49] = test system: OVCAR-8 ovarian
[50] = test system: MDA-MB-231 breast
[51] = test system: RPMI-8226 leukemia
[52] = test system: BT-549 breast
[53] = test system: SK-MEL-2 melanoma
[54] = test system: T-47D breast
[55] = test system: SK-MEL-5 melanoma
[56] = test system: U251 CNS
[57] = test system: SK-OV-3 ovarian
[58] = test system: DU-145 prostate
[59] = test system: A549 NSCLC

C[C@H](CCC(=O)O)[C@H]1CC[C@H]2[C@@H]3CC[C@@H]4C[C@H](O)CC[C@]4(C)[C@H]3CC[C@]12C
GI50 [1]: 44.6 µM and 24.6 µM | TGI [1]: > 100 µM and 59.4 µM | GI50 [2]: > 100 µM and 36 µM | TGI [2]: > 100 µM | GI50 [3]: > 100 µM and 34.1 µM | TGI [3]: > 100 µM and 99.2 µM | GI50 [4]: > 100 µM and 37.2 µM | TGI [4]: > 100 µM | GI50 [5]: > 100 µM and 14.6 µM | TGI [5]: > 100 µM and 32.8 µM | GI50 [6]: > 100 µM and 21.6 µM | TGI [6]: > 100 µM and 57.7 µM | GI50 [7]: > 100 µM and 20.8 µM | TGI [7]: > 100 µM and 56.1 µM | GI50 [8]: > 100 µM and 17.4 µM | TGI [8]: > 100 µM and 43.8 µM | GI50 [9]: > 100 µM and 35.3 µM | TGI [9]: > 100 µM | GI50 [10]: > 100 µM and 29.3 µM | TGI [10]: > 100 µM and 82.4 µM | GI50 [11]: > 100 µM | TGI [11]: > 100 µM | GI50 [12]: > 100 µM and 18.2 µM | TGI [12]: > 100 µM and 32.3 µM | GI50 [13]: > 100 µM and 19.8 µM | TGI [13]: > 100 µM and 40.2 µM | GI50 [14]: > 100 µM and 31.8 µM | TGI [14]: > 100 µM | GI50 [15]: > 100 µM and 24.3 µM | TGI [15]: > 100 µM and 90.7 µM | GI50 [16]: > 100 µM and 23.9 µM | TGI [16]: > 100 µM and 57.6 µM | GI50 [17]: > 100 µM and 27 µM | TGI [17]: > 100 µM and 78.7 µM | GI50 [18]: > 100 µM and 19 µM | TGI [18]: > 100 µM and 33.3 µM | GI50 [19]: > 100 µM and 37.8 µM | TGI [19]: > 100 µM | GI50 [20]: > 100 µM and 18.4 µM | TGI [20]: > 100 µM and 33.2 µM | GI50 [21]: > 100 µM and 14.3 µM | TGI [21]: > 100 µM and 27.3 µM | GI50 [22]: > 100 µM and 40 µM | TGI [22]: > 100 µM | GI50 [23]: > 100 µM and 32 µM | TGI [23]: > 100 µM and 84.5 µM | GI50 [24]: > 100 µM and 24.4 µM | TGI [24]: > 100 µM and 67.2 µM | GI50 [25]: > 100 µM and 26 µM | TGI [25]: > 100 µM and 62.4 µM | GI50 [26]: > 100 µM and 20.7 µM | TGI [26]: > 100 µM and 60.3 µM | GI50 [27]: > 100 µM and 40.2 µM | TGI [27]: > 100 µM and 74.1 µM | GI50 [28]: > 100 µM and 33.3 µM | TGI [28]: > 100 µM and 65.8 µM | GI50 [29]: > 100 µM and 33.6 µM | TGI [29]: > 100 µM and 83.3 µM | GI50 [30]: > 100 µM and 20 µM | TGI [30]: > 100 µM and 69 µM | GI50 [31]: > 100 µM and 25.5 µM | TGI [31]: > 100 µM and 54.5 µM | GI50 [32]: > 100 µM and 37 µM | TGI [32]: > 100 µM | TGI [33]: > 100 µM | GI50 [34]: > 100 µM and 27.6 µM | TGI [34]: > 100 µM and 61 µM | GI50 [35]: > 100 µM and 36.5 µM | TGI [35]: > 100 µM | GI50 [36]: > 100 µM and 21.5 µM | TGI [36]: > 100 µM and 52.3 µM | GI50 [37]: > 100 µM and 28.3 µM | TGI [37]: > 100 µM and 67.6 µM | GI50 [38]: > 100 µM and 28.9 µM | TGI [38]: > 100 µM and 80.3 µM | GI50 [39]: > 100 µM and 22.2 µM | TGI [39]: > 100 µM and 47.1 µM | GI50 [40]: > 100 µM and 25.5 µM | TGI [40]: > 100 µM and 54.6 µM | GI50 [41]: > 100 µM and 17.3 µM | TGI [41]: > 100 µM and 42 µM | GI50 [42]: > 100 µM and 15.1 µM | TGI [42]: > 100 µM and 32.8 µM | GI50 [43]: > 100 µM and 17.9 µM | TGI [43]: > 100 µM and 33.7 µM | GI50 [44]: > 100 µM and 19.9 µM | TGI [44]: > 100 µM and 46.3 µM | GI50 [45]: > 100 µM and 27 µM | TGI [45]: > 100 µM and 85.3 µM | GI50 [46]: > 100 µM and 23.5 µM | TGI [46]: > 100 µM and 62.3 µM | GI50 [47]: > 100 µM and 22.6 µM | TGI [47]: > 100 µM and 50.8 µM | GI50 [48]: > 100 µM and 28.2 µM | TGI [48]: > 100 µM and 73.8 µM | GI50 [49]: > 100 µM and 41.3 µM | TGI [49]: > 100 µM | GI50 [50]: > 100 µM and 28.3 µM | TGI [50]: > 100 µM and 73.2 µM | GI50 [51]: > 100 µM and 22.9 µM | TGI [51]: > 100 µM and 52.7 µM | GI50 [52]: > 100 µM and 28.4 µM | TGI [52]: > 100 µM and 74.7 µM | GI50 [53]: > 100 µM and 21.5 µM | TGI [53]: > 100 µM and 45.6 µM | GI50 [54]: > 100 µM and 19.9 µM | TGI [54]: > 100 µM and 46.1 µM | GI50 [55]: > 100 µM and 18.3 µM | TGI [55]: > 100 µM and 35.3 µM | GI50 [56]: > 100 µM and 21.3 µM | TGI [56]: > 100 µM and 43.7 µM | GI50 [57]: > 100 µM and 40.3 µM | TGI [57]: > 100 µM | GI50 [58]: 86.7 µM and 30 µM | TGI [58]: > 100 µM and 87.7 µM | GI50 [59]: > 100 µM and 18.4 µM | TGI [59]: > 100 µM and 46.2 µM
